From patent EP1561465A2, “Methods of use of fluoroquinolone compounds against bacteria” (LG Life Sciences, Ltd., priority 1999, dated 2001)
Converted amounts (≈) assume the structure as drawn. Read-outs that look alike come from different tables or passages of the source.

Assays:
Streptococcus pneumoniae = assay: MIC by E-test (broth microdilution for gemifloxacin), 107 pneumococcal carrier isolates, Athens 1998; format: cell-based; conditions: for MIC Range: in µg/mL (unit assumed)
Protocol: Susceptibility testing was performed by agar dilution or epsilometer method (E-test), as recommended by the NCCLS. […] The susceptibility profiles of the strains were assessed using the Epsilometer method (E-test). The isolates were subdivided into two groups according to their penicillin susceptibility patterns (penicillin-susceptible and penicillin-intermediate.

Staphylococcus aureus = assay: MIC by agar macrodilution (NCCLS), 373 Gram positive isolates, Athens 1998; format: cell-based
Enterococcus faecalis = assay: as above; format: cell-based
Enterococcus faecium = assay: as above; format: cell-based
Aeromonas spp. = assay: MIC by agar dilution (NCCLS M7-A4), 288 enteropathogenic isolates, gemifloxacin and 15 other antimicrobials; format: cell-based; conditions: Aeromonas spp. N= 16
Shigella spp. = assay: as above; format: cell-based; conditions: Shigella spp. N= 21
Protocol: [A. hydrophila (12), and A. sobria (4)], and 91 Campylobacter jejuni. […] The strains were stored in skimmed-milk at -80 °C until studied.
The plates were incubated aerobically at 35 °C for 24 h, except for Campylobacter jejuni, where a microaerophilic atmosphere was obtained by using Campy Pack (Becton Dickinson, Cockeysville, MD, USA), and incubation was for 48 h. All organisms were tested with an inoculum of ≅ 10^4 cfu/spot. MICs were defined as the lower antibiotic concentration with no visible growth.

Hafnia alvei = assay: as above; format: cell-based; conditions: Hafnia alvei N= 32
Salmonella spp. = assay: as above; format: cell-based
Campylobacter jejuni = assay: as above; conditions: Campylobacter jejuni N= 91
Yersinia enterocolitica = assay: as above; format: cell-based; conditions: Yersinia enterocolitica N= 22
[1] = Penicillin-intermediate S. pneumoniae (n = 24), E-test
[2] = Penicillin-intermediate S. pneumoniae (n = 24), E-test, unit assumed
[3] = Penicillin-susceptible S. pneumoniae (n = 107), E-test
[4] = Methicillin-susceptible Staphylococcus aureus (n = 85)
[5] = continuation of the preceding table (title not shown), 14 isolates
[6] = number of isolates at MIC 1 µg/ml, n = 81
[7] = number of isolates at MIC 4 µg/ml, n = 81
[8] = Penicillin-susceptible S. pneumoniae (n = 107), E-test, unit assumed
[9] = number of isolates with MIC […] µg/ml, Methicillin-susceptible Staphylococcus aureus (n = 85)
[10] = number of isolates with MIC […], Methicillin-susceptible Staphylococcus aureus (n = 85)
[11] = number of isolates at MIC […], n = 81
[12] = number of isolates at MIC […], n = 14

`CN[C@H](CC(C)C)C(=O)N[C@H]1C(=O)N[C@@H](CC(N)=O)C(=O)N[C@H]2C(=O)N[C@H]3C(=O)N[C@H](C(=O)N[C@H](C(=O)O)c4cc(O)cc(O)c4-c4cc3ccc4O)[C@H](O)c3ccc(c(Cl)c3)Oc3cc2cc(c3O[C@@H]2O[C@H](CO)[C@@H](O)[C@H](O)[C@H]2O[C@H]2C[C@](C)(N)[C@H](O)[C@H](C)O2)Oc2ccc(cc2Cl)[C@H]1O` [Vancomycin] was tested, and the MIC Range (Streptococcus pneumoniae; [1]) was 0.19-1.5, the MIC90 (Streptococcus pneumoniae; [2]) was 1 µg/mL (≈ 0.69 µM) and the MIC Range (Streptococcus pneumoniae; [3]) was 0.064-2. For the same molecule, the MIC90 (Streptococcus pneumoniae; Streptococcus pneumoniae) was 1 µg/mL (≈ 0.69 µM), the MIC50 (Streptococcus pneumoniae; Streptococcus pneumoniae, Penicillin-intermediate S. pneumoniae (n = 24), E-test) was 0.75 µg/mL (≈ 0.518 µM) and the MIC50 (Streptococcus pneumoniae; Streptococcus pneumoniae, Penicillin-susceptible S. pneumoniae (n = 107), E-test) was 0.5 µg/mL (≈ 0.345 µM). The “MIC Range” value (Staphylococcus aureus; [4]) was 0.5 to 2 µg/mL, the MIC50 (Staphylococcus aureus; Staphylococcus aureus) was 1 µg/mL (≈ 0.69 µM) and the MIC90 (Staphylococcus aureus; Staphylococcus aureus) was 2 µg/mL (≈ 1.38 µM). For the same molecule, the “MIC distribution (µg/ml) 0.03” value (Enterococcus faecalis) was 0, the “MIC distribution (µg/ml) 0.06” value (Enterococcus faecalis) was 0 and the “MIC distribution (µg/ml) 0.125” value (Enterococcus faecalis) was 0. The “MIC distribution (µg/ml) 0.25” value (Enterococcus faecalis) was 0, the “MIC distribution (µg/ml) 0.5” value (Enterococcus faecalis) was 0 and the “MIC distribution (µg/ml) 1” value (Enterococcus faecalis) was 4. The “MIC distribution (µg/ml) 4” value (Enterococcus faecalis) was 6, the “MIC distribution (µg/ml) 8” value (Enterococcus faecalis) was 0 and the “MIC distribution (µg/ml) 16” value (Enterococcus faecalis) was 0. The “MIC distribution (µg/ml) ≤0.015” value (Enterococcus faecalis) was 0, the MIC50 (Enterococcus faecalis; Enterococcus faecalis) was 2 µg/mL (≈ 1.38 µM) and the MIC90 (Enterococcus faecalis; Enterococcus faecalis) was 4 µg/mL (≈ 2.76 µM). The “MIC50” value (Enterococcus faecalis; [5]) was 2 µg/mL (≈ 1.38 µM), the “MIC90” value (Enterococcus faecalis; [5]) was 4 µg/mL (≈ 2.76 µM) and the “MIC Range” value (Enterococcus faecalis; [5]) was 1 to 4 µg/mL. The “MIC distribution (µg/ml) 1” value (Enterococcus faecalis; [6]) was 10 and the “MIC distribution (µg/ml) 4” value (Enterococcus faecalis; [7]) was 40.

For Teicoplanin, the MIC Range (Streptococcus pneumoniae; [1]) was 0.023-0.125, the MIC50 (Streptococcus pneumoniae; [2]) was 0.064 µg/mL and the MIC90 (Streptococcus pneumoniae; [2]) was 0.125 µg/mL. For the same molecule, the MIC Range (Streptococcus pneumoniae; [3]) was 0.023-3, the MIC50 (Streptococcus pneumoniae; [8]) was 0.064 µg/mL and the MIC90 (Streptococcus pneumoniae; [8]) was 0.38 µg/mL. For the same molecule, the “MIC50” value (Staphylococcus aureus; [4]) was 1 µg/mL, the “MIC90” value (Staphylococcus aureus; [4]) was 2 µg/mL and the “MIC Range” value (Staphylococcus aureus; [4]) was 0.5 to 8 µg/mL. The “MIC distribution (µg/ml) 0.06” value (Staphylococcus aureus; number of isolates with MIC 0.06 µg/ml, Methicillin-susceptible Staphylococcus aureus (n = 85)) was 0, the “MIC distribution (µg/ml) 0.5” value (Staphylococcus aureus; number of isolates with MIC 0.5 µg/ml, Methicillin-susceptible Staphylococcus aureus (n = 85)) was 26 and the “MIC distribution (µg/ml) 1” value (Staphylococcus aureus; number of isolates with MIC 1 µg/ml, Methicillin-susceptible Staphylococcus aureus (n = 85)) was 40. The “MIC distribution (µg/ml) 2” value (Staphylococcus aureus; number of isolates with MIC 2 µg/ml, Methicillin-susceptible Staphylococcus aureus (n = 85)) was 17, the “MIC distribution (µg/ml) 4” value (Staphylococcus aureus; number of isolates with MIC 4 µg/ml, Methicillin-susceptible Staphylococcus aureus (n = 85)) was 0 and the “MIC distribution (µg/ml) 8” value (Staphylococcus aureus; number of isolates with MIC 8 µg/ml, Methicillin-susceptible Staphylococcus aureus (n = 85)) was 2. For the same molecule, the “MIC distribution (µg/ml) >64” value (Staphylococcus aureus; number of isolates with MIC >[…] µg/ml, Methicillin-susceptible Staphylococcus aureus (n = 85)) was 0, the “MIC distribution (µg/ml) 16” value (Staphylococcus aureus; [9]) was 0 and the “MIC distribution (μg/ml) 32” value (Staphylococcus aureus; [9]) was 0. For the same molecule, the “MIC distribution (μg/ml) 64” value (Staphylococcus aureus; [9]) was 0, the “MIC distribution (µg/ml) 0.125” value (Staphylococcus aureus; [10]) was 0 and the “MIC distribution (µg/ml) 0.25” value (Staphylococcus aureus; [10]) was 0. For the same molecule, the “MIC distribution (µg/ml) ≤0.03” value (Staphylococcus aureus; number of isolates with MIC ≤0.03 µg/ml, Methicillin-susceptible Staphylococcus aureus (n = 85)) was 0, the “MIC50” value (Enterococcus faecalis; n = 81 isolates) was 0.5 µg/mL and the “MIC90” value (Enterococcus faecalis; n = 81 isolates) was 1 µg/mL. For the same molecule, the “MIC Range” value (Enterococcus faecalis; n = 81 isolates) was 0.06 to 16 µg/mL, the “MIC distribution (µg/ml) 0.03” value (Enterococcus faecalis; number of isolates at MIC 0.03 µg/ml, n = 81) was 0 and the “MIC distribution (µg/ml) 0.06” value (Enterococcus faecalis; number of isolates at MIC 0.06 µg/ml, n = 81) was 2. The “MIC distribution (µg/ml) 0.5” value (Enterococcus faecalis; number of isolates at MIC 0.5 µg/ml, n = 81) was 35, the “MIC distribution (µg/ml) 1” value (Enterococcus faecalis; [6]) was 27 and the “MIC distribution (µg/ml) 2” value (Enterococcus faecalis; number of isolates at MIC 2 µg/ml, n = 81) was 4. For the same molecule, the “MIC distribution (µg/ml) 4” value (Enterococcus faecalis; [7]) was 0, the “MIC distribution (µg/ml) 8” value (Enterococcus faecalis; number of isolates at MIC 8 µg/ml, n = 81) was 0 and the “MIC distribution (µg/ml) 16” value (Enterococcus faecalis; number of isolates at MIC 16 µg/ml, n = 81) was 1. The “MIC distribution (µg/ml) 0.125” value (Enterococcus faecalis; [11]) was 6, the “MIC distribution (µg/ml) 0.25” value (Enterococcus faecalis; [11]) was 6 and the “MIC distribution (µg/ml) ≤0.015” value (Enterococcus faecalis; number of isolates at MIC ≤[…], n = 81) was 0. For the same molecule, the “MIC distribution (µg/ml) ≥32” value (Enterococcus faecalis; number of isolates at MIC ≥32 µg/ml, n = 81) was 0, the “MIC50” value (Enterococcus faecium; n = 14 isolates) was 0.5 µg/mL and the “MIC90” value (Enterococcus faecium; n = 14 isolates) was 1 µg/mL. The “MIC Range” value (Enterococcus faecium; n = 14 isolates) was 0.25 to 4 µg/mL, the “MIC distribution (µg/ml) 0.03” value (Enterococcus faecium; number of isolates at MIC 0.03 µg/ml, n = 14) was 0 and the “MIC distribution (µg/ml) 0.06” value (Enterococcus faecium; number of isolates at MIC 0.06 µg/ml, n = 14) was 0. The “MIC distribution (µg/ml) 0.5” value (Enterococcus faecium; number of isolates at MIC 0.5 µg/ml, n = 14) was 4, the “MIC distribution (µg/ml) 1” value (Enterococcus faecium; number of isolates at MIC 1 µg/ml, n = 14) was 6 and the “MIC distribution (µg/ml) 2” value (Enterococcus faecium; number of isolates at MIC 2 µg/ml, n = 14) was 0. For the same molecule, the “MIC distribution (µg/ml) 4” value (Enterococcus faecium; number of isolates at MIC 4 µg/ml, n = 14) was 1, the “MIC distribution (µg/ml) 8” value (Enterococcus faecium; number of isolates at MIC 8 µg/ml, n = 14) was 0 and the “MIC distribution (µg/ml) 16” value (Enterococcus faecium; number of isolates at MIC 16 µg/ml, n = 14) was 0. The “MIC distribution (µg/ml) 0.125” value (Enterococcus faecium; [12]) was 0, the “MIC distribution (µg/ml) 0.25” value (Enterococcus faecium; [12]) was 3 and the “MIC distribution (µg/ml) ≤0.015” value (Enterococcus faecium; number of isolates at MIC ≤[…], n = 14) was 0. For the same molecule, the “MIC distribution (µg/ml) ≥32” value (Enterococcus faecium; number of isolates at MIC ≥32 µg/ml, n = 14) was 0.

For gentamicin, the “% Susceptible” value (Aeromonas spp.) was 100%, the “MIC (mg/L) 50%” value (Aeromonas spp.) was 0.5 mg/L and the “MIC (mg/L) 90%” value (Aeromonas spp.) was 1 mg/L. For the same molecule, the “MIC (mg/L) Range” value (Aeromonas spp.) was 0.25 to 1 mg/L, the “% Susceptible” value (Shigella spp.) was 100% and the “MIC (mg/L) 50%” value (Shigella spp.) was 1 mg/L. The “MIC (mg/L) 90%” value (Shigella spp.) was 1 mg/L, the “MIC (mg/L) Range” value (Shigella spp.) was 0.5 to 1 mg/L and the “% Susceptible” value (Hafnia alvei) was 100%. The “MIC (mg/L) 50%” value (Hafnia alvei) was 0.25 mg/L, the “MIC (mg/L) 90%” value (Hafnia alvei) was 0.5 mg/L and the “MIC (mg/L) Range” value (Hafnia alvei) was 0.25 to 0.5 mg/L. The isolates being resistant (Salmonella spp.; Salmonella spp.) was 4%, the “% Susceptible” value (Salmonella spp.; Salmonella spp. N= 106) was 96% and the “MIC (mg/L) 50%” value (Salmonella spp.; Salmonella spp. N= 106) was 0.25 mg/L. For the same molecule, the “MIC (mg/L) 90%” value (Salmonella spp.; Salmonella spp. N= 106) was 0.5 mg/L, the “MIC (mg/L) Range” value (Salmonella spp.; Salmonella spp. N= 106) was 0.12 to 128 mg/L and the “% Susceptible” value (Campylobacter jejuni) was 100%. The “MIC (mg/L) 50%” value (Campylobacter jejuni) was 0.25 mg/L, the “MIC (mg/L) 90%” value (Campylobacter jejuni) was 0.5 mg/L and the “MIC (mg/L) Range” value (Campylobacter jejuni) was 0.12 to 1 mg/L. The “% Susceptible” value (Yersinia enterocolitica) was 100%, the “MIC (mg/L) 50%” value (Yersinia enterocolitica) was 1 mg/L and the “MIC (mg/L) 90%” value (Yersinia enterocolitica) was 1 mg/L. For the same molecule, the “MIC (mg/L) Range” value (Yersinia enterocolitica) was 0.5 to 1 mg/L.
